What is called EC50 is the concentration needed to bring the measured effect to its halfway point. Higher therefore signals a need for much substance.

Here are results for 28 compounds from patent US11180483B2, “Substituted reverse pyrimidine Bmi-1 inhibitors” (PTC Therapeutics, Inc., priority 2012, dated 2021).

In this experiment the test system is Bmi-1. The experiment in a line: Sandwich ELISA Assay (Bmi-1 ELISA) in HT-1080 cells. The experiment is classed as cell-based. How it is done:
Cell Seeding and Compound Treatment (Day 1):
HT-1080 cells were seeded at 8000 cells/well (50 μL) in 96-well tissue culture plates. After the cells became adherent (3-4 hours), 2× diluted stocks of test compounds in 50 μL DMEM containing 1% DMSO (final DMSO concentration was 0.5%) were added and the plates were incubated at 37° C. under 5% CO2 for 40-48 hours.
ELISA Plate First Antibody Preparation (Day 2):
The First Antibody (Millipore Mouse, monoclonal to mouse Bmi-1, clone F6, catalog #05-637) diluted to 2 μg/mL in PBS was added (100 μL) to each well of a Nunc MaxiSorp 96-well ELISA plate. The plate was covered with a plate seal and allowed to stand overnight.
Cell Lysate Preparation (Day 3):
Fresh 1× Lysis buffer was prepared on the day of the assay as follows: 1 mM EDTA, 150 mM NaCl, 0.5% Triton-X 100, 10 mM NaF, 20 mM B-Glycerophosphate, 1 mM DTT (in PBS, pH 7.2-7.4) and 1× HALT protease inhibitor cocktail (Pierce #78410).
The 1× Lysis Buffer (40 μL) was added to each well and the plate was shaken for 5-10 minutes on an orbital shaker to allow cell lysis, then diluent (1% BSA in PBS in 0.5% NP40) (100 μL) was added to each well.
A standard curve was prepared at the following Bmi-1 concentrations: 8000, 4000, 2000, 1000, 500, 250, 125, 0 pg/mL The Bmi-1 Recombinant Protein Standard (Novus Biologicals PCGF4 Recombinant Protein (P01), catalog #H00000648-P01) used to prepare the standard curve was stored at −80° C. On first thaw, the Bmi-1 Recombinant Protein Standard was diluted to […] in Blocking Buffer (1% BSA in PBS; BSA: Fisher Scientific Catalog #1600-100). Aliquots were taken and refrozen at −80° C. The aliquots may be kept at 4° C. and reused after first thaw, but only within 1-2 weeks. The Bmi-1 Recombinant Protein Standard contains a GST-fusion tag that appears around 70 Kda on Western Blot.
The prepared ELISA plate was washed 3× with Wash Buffer (0.05% Tween-20 in PBS). The final wash was removed from the plate and the plate was blotted dry. Blocking Buffer (300 μL) (1% BSA in PBS) was added to each well. The plate was covered with a plate seal and incubated at room temperature for 1 hour. The blocked plate was washed 3× with Wash Buffer, then the final wash was removed and the plate was blotted dry. The previously prepared samples and standards were added (100 μL/well) and the plate was covered with a plate seal and incubated at 4° C. overnight.
The prepared ELISA plate was removed from 4° C., incubated at room temperature for 30 minutes, then washed and blotted dry as previously described for Day 3. The Second Antibody (Cell Signaling Rabbit anti-Bmi-1, Cat #2830) diluted to 1:600 in Blocking Buffer was added (100 μL) to each well, except as needed for background control wells. The plate was covered with a plate seal and incubated for 1.5 hrs at room temperature.
The ELISA plate was washed and blotted dry as previously described. The Third Antibody (Cell Signaling HRP conjugated anti-rabbit IgG (CellSignaling, Cat #:7074) diluted to 1:300 in Blocking Buffer was added (100 μL) to each well, except as needed for background control wells. The plate was incubated for 1 hr at room temperature.
The plate was washed and blotted dry as previously described, then prepared TMB substrate (TMB substrate kit, Pierce catalog #34021) (prepared by mixing kit reagents 1:1) (100 μL) was added per well. The plate was incubated for 20-30 minutes at room temperature in the dark, then Stop Solution (2 M sulfuric acid in water) (50 μL) was added per well. The plates were read at OD450 (experimental) and OD570 (reference).
Background: An ELISA detects its analyte on a solid surface through an enzyme-linked reagent.
`COc1ccc(Nc2ccnc(-n3c(C)nc4ccccc43)n2)cc1` [Cpd 1, N-(4-methoxyphenyl)-2-(2-methyl-1H-benzimidazol-1-yl)pyrimidin-4-amine]: the EC50 was 10 to 100 nM.
In the case of `Cc1nc2ccccn2c1-c1nccc(Nc2ccc3c(c2)OCCO3)n1` [Cpd 2, N-(2,3-dihydro-1,4-benzodioxin-6-yl)-2-(2-methylimidazo[1,2-a]pyridin-3-yl)pyrimidin-4-amine] it was 100 to 3000 nM.
Consider `Cc1nc2ccccn2c1-c1nccc(Nc2ccc(C(F)(F)F)cc2)n1` [Cpd 3, 2-(2-methylimidazo[1,2-a]pyridin-3-yl)-N-[4-(trifluoromethyl)phenyl]pyrimidin-4-amine], for which the EC50 was in the range of 10 to 100 nM.
To `COc1ccc(Nc2ccnc(-c3c(C)nc4ccccn34)n2)cc1` [Cpd 4, N-(4-methoxyphenyl)-2-(2-methylimidazo[1,2-a]pyridin-3-yl)pyrimidin-4-amine] belongs 10 to 100 nM; to `Cc1nc2ccccn2c1-c1nccc(Nc2ccc(Cl)cc2)n1` [Cpd 5, N-(4-chlorophenyl)-2-(2-methylimidazo[1,2-a]pyridin-3-yl)pyrimidin-4-amine], 100 to 3000 nM.
In the case of `Cc1nc2ccccn2c1-c1nccc(Nc2ccccc2)n1` [Cpd 6, 2-(2-methylimidazo[1,2-a]pyridin-3-yl)-N-phenylpyrimidin-4-amine] it was 10 to 100 nM.
In the case of `FC(F)(F)c1ccc(Nc2ccnc(-c3c(C(F)(F)F)nc4ccccn34)n2)cc1` [Cpd 7, 2-[2-(trifluoromethyl)imidazo[1,2-a]pyridin-3-yl]-N-[4-(trifluoromethyl)phenyl]pyrimidin-4-amine] it was 100 to 3000 nM; in that of `FC(F)(F)c1nc2ccccn2c1-c1nccc(Nc2ccc(Cl)cc2)n1` [Cpd 8, N-(4-chlorophenyl)-2-[2-(trifluoromethyl)imidazo[1,2-a]pyridin-3-yl]pyrimidin-4-amine], 100 to 3000 nM.
In turn, `Cc1ccc(Nc2ccnc(-c3c(C(F)(F)F)nc4ccccn34)n2)cc1` [Cpd 9, N-(4-methylphenyl)-2-[2-(trifluoromethyl)imidazo[1,2-a]pyridin-3-yl]pyrimidin-4-amine] had an EC50 of 1 to 10 nM.
To `FC(F)(F)c1nc2ccccn2c1-c1nccc(Nc2ccc(Br)cc2)n1` [Cpd 10, N-(4-bromophenyl)-2-[2-(trifluoromethyl)imidazo[1,2-a]pyridin-3-yl]pyrimidin-4-amine] belongs 10 to 100 nM.
In the case of `FC(F)Oc1ccc(Nc2ccnc(-c3c(C(F)(F)F)nc4ccccn34)n2)cc1` [Cpd 11, N-[4-(difluoromethoxy)phenyl]-2-[2-(trifluoromethyl)imidazo[1,2-a]pyridin-3-yl]pyrimidin-4-amine] it was 100 to 3000 nM; in that of `COc1ccc(Nc2ccnc(-c3c(C(F)(F)F)nc4ccccn34)n2)cc1` [Cpd 12, N-(4-methoxyphenyl)-2-[2-(trifluoromethyl)imidazo[1,2-a]pyridin-3-yl]pyrimidin-4-amine], 10 to 100 nM.
In the case of `FC(F)(F)c1ccc(Nc2ccnc(-c3c(C(F)(F)F)nc4ccc(Cl)cn34)n2)cc1` [Cpd 13, 2-[6-chloro-2-(trifluoromethyl)imidazo[1,2-a]pyridin-3-yl]-N-[4-(trifluoromethyl)phenyl]pyrimidin-4-amine], the EC50 was 100 to 3000 nM.
To `FC(F)(F)Oc1ccc(Nc2ccnc(-c3c(C(F)(F)F)nc4ccc(Cl)cn34)n2)cc1` [Cpd 14, 2-[6-chloro-2-(trifluoromethyl)imidazo[1,2-a]pyridin-3-yl]-N-[4-(trifluoromethoxy)phenyl]pyrimidin-4-amine] belongs 100 to 3000 nM; to `FC(F)(F)c1nc2ccc(Cl)cn2c1-c1nccc(Nc2ccc(Br)cc2)n1` [Cpd 15, N-(4-bromophenyl)-2-[6-chloro-2-(trifluoromethyl)imidazo[1,2-a]pyridin-3-yl]pyrimidin-4-amine], 10 to 100 nM.
The compound `FC(F)Oc1ccc(Nc2ccnc(-c3c(C(F)(F)F)nc4ccc(Cl)cn34)n2)cc1` [Cpd 16, 2-[6-chloro-2-(trifluoromethyl)imidazo[1,2-a]pyridin-3-yl]-N-[4-(difluoromethoxy)phenyl]pyrimidin-4-amine] yielded an EC50 of 10 to 100 nM.
In the case of `FC(F)(F)c1nc2ccc(Cl)cn2c1-c1nccc(Nc2ccc(Cl)cc2)n1` [Cpd 17, N-(4-chlorophenyl)-2-[6-chloro-2-(trifluoromethyl)imidazo[1,2-a]pyridin-3-yl]pyrimidin-4-amine] it was 100 to 3000 nM; in that of `Cc1nc2ccc(C(F)(F)F)cn2c1-c1nccc(Nc2ccc(C(F)(F)F)cc2)n1` [Cpd 18, 2-[2-methyl-6-(trifluoromethyl)imidazo[1,2-a]pyridin-3-yl]-N-[4-(trifluoromethyl)phenyl]pyrimidin-4-amine], 100 to 3000 nM; in that of `Cc1nc2ccc(C(F)(F)F)cn2c1-c1nccc(Nc2ccc(Br)cc2)n1` [Cpd 19, N-(4-bromophenyl)-2-[2-methyl-6-(trifluoromethyl)imidazo[1,2-a]pyridin-3-yl]pyrimidin-4-amine], 100 to 3000 nM.
To `Cc1ccc(Nc2ccnc(-c3c(C)nc4ccc(C(F)(F)F)cn34)n2)cc1` [Cpd 20, N-(4-methylphenyl)-2-[2-methyl-6-(trifluoromethyl)imidazo[1,2-a]pyridin-3-yl]pyrimidin-4-amine] belongs 100 to 3000 nM; to `Cc1ccc(Nc2ccnc(-c3c(C(F)(F)F)nc4ccc(F)cn34)n2)cc1` [Cpd 21, 2-[6-fluoro-2-(trifluoromethyl)imidazo[1,2-a]pyridin-3-yl]-N-(4-methylphenyl)pyrimidin-4-amine], 1 to 10 nM; to `COc1ccc(Nc2ccnc(-c3c(C(F)(F)F)nc4ccc(F)cn34)n2)cc1` [Cpd 22, 2-[6-fluoro-2-(trifluoromethyl)imidazo[1,2-a]pyridin-3-yl]-N-(4-methoxyphenyl)pyrimidin-4-amine], 10 to 100 nM.
`COc1ccc(Nc2ccnc(-c3c(C(F)(F)F)n(C)c4ccc(Cl)cc34)n2)cc1` [Cpd 23, 2-[5-chloro-1-methyl-2-(trifluoromethyl)-1H-indol-3-yl]-N-(4-methoxyphenyl)pyrimidin-4-amine] displayed a half-maximal effective concentration (EC50) of 100 to 3000 nM.
In the case of `Cn1c(C(F)(F)F)c(-c2nccc(Nc3ccc(OC(F)F)cc3)n2)c2cc(Cl)ccc21` [Cpd 24, 2-[5-chloro-1-methyl-2-(trifluoromethyl)-1H-indol-3-yl]-N-[4-(difluoromethoxy)phenyl]pyrimidin-4-amine] it was 100 to 3000 nM.
To `Cn1c(C(F)(F)F)c(-c2nccc(Nc3ccc(Br)cc3)n2)c2cc(Cl)ccc21` [Cpd 25, N-(4-bromophenyl)-2-[5-chloro-1-methyl-2-(trifluoromethyl)-1H-indol-3-yl]pyrimidin-4-amine] belongs 100 to 3000 nM.
In the case of `Fc1ccc2nc(-c3ccccc3)c(-c3nccc(Nc4ccc(Br)cc4)n3)n2c1` [Cpd 26, N-(4-bromophenyl)-2-(6-fluoro-2-phenylimidazo[1,2-a]pyridin-3-yl)pyrimidin-4-amine] it was 100 to 3000 nM; in that of `Cc1ccc(Nc2ccnc(-c3c(-c4ccccc4)nc4ccc(F)cn34)n2)cc1` [Cpd 27, 2-(6-fluoro-2-phenylimidazo[1,2-a]pyridin-3-yl)-N-(4-methylphenyl)pyrimidin-4-amine], 100 to 3000 nM; in that of `FC(F)(F)c1nc2ccccn2c1-c1nccc(Nc2ccc3c(c2)OCO3)n1` [Cpd 28, N-(1,3-benzodioxol-5-yl)-2-[2-(trifluoromethyl)imidazo[1,2-a]pyridin-3-yl]pyrimidin-4-amine], 100 to 3000 nM.
